Assay results: patent US20130309379A1, “Anti-Fungal Composition” (DSM IP ASSETS B.V., priority 2005, published 2013)

Assays:
[1] = Chemical stability (natamycin degradation) in beverages stored at 4° C.; assay type: physicochemical; settings: for Total degradation: 4° C., 150 to 170 ppm natamycin
Description: The release rate of the new slow release natamycin was compared with that of known commercial natamycin DELVOCID® Instant (DSM, The Netherlands) by measuring their chemical stability in various beverages. The natamycin preparations were suspended in beverages to a final concentration of 150 to 170 ppm natamycin. The natamycin containing beverages were stored at 4° C. and the natamycin concentration in the beverage was measured in time.

[2] = tested on: Saccharomyces cerevisiae ATCC 9763; assay: Microbiological method for determining natamycin release rate from a loaded filter paper disc into seeded agar (inhibition zone); assay type: physicochemical
From the text: The test used to measure the natamycin release rate has been described in example 1 of this application. Briefly, the sample comprising natamycin is applied to a carrier. The carrier can be any material that provides unlimited water transport. Preferably, the carrier is a filter paper disc, more preferably the filter paper disc used in example 1. Subsequently, the carrier loaded with the natamycin composition is applied to the surface of an agar plate seeded with yeast or fungal cells (in example 1 Saccharomyces cerevisiae cells were used). The agar plate and the carrier are subsequently incubated at a temperature such that the natamycin is released into the agar. (in example 1, the temperature chosen is 6° C.) during 24 hours. After having removed the carrier from the agar plate, the agar plate is incubated under growth permitting conditions for said cells (in example 1, the temperature is 30° C.) during a chosen period. In this case, the period is 24 hours or 48 hours depending on the type of release rate desired to be determined. Finally, inhibition of cell growth in the agar due to the presence of the natamycin, which has been released from the carrier into the agar, is determined. The size of the inhibition zone is a measure of the natamycin released from the sample. […] The discs were then put on agar, which was seeded with the Saccharomyces cerevisiae ATCC 9763. The petri dishes containing the agar were then stored for 24 hours at 6° C. to permit the natamycin to release into the agar. […] As a reference, discs were freshly loaded with a range of known amounts of natamycin dissolved in aqueous methanol. The next day, the sample discs were transferred to new petri dishes containing agar seeded with Saccharomyces cerevisiae. New discs freshly loaded with a range of known quantities of dissolved natamycin were prepared for use as a reference. The new dishes with the sample discs and the new reference were stored at 6° C. for 24 hours and the old dishes containing the released natamycin incubated at 30° C. for 24 hours. The size of the inhibition zone is a measure of the natamycin released from the sample disc. The amount of released natamycin can be calculated by methods know per se. By repeating the procedure, the released natamycin can be measured on a daily basis. Other release time periods may alternatively be chosen. Using the method described in example 1, the release rate profile of the new slow release natamycin was compared to the release rate profile of known commercial natamycin DELVOCID® (DSM, The Netherlands). Suspensions of the natamycin preparations were prepared in such a manner that each suspension contained 800 ppm natamycin as such. 50 μl of each of the respective mixtures was applied on a paper filter disc and the release rate was analysed using the method of example 1.

[3] = tested on: Saccharomyces cerevisiae ATCC 9763; settings: carrier on agar surface of 0.6 cm diameter, carrier loading 40 μg; disclosed in U.S. Pat. No. 5,821,233; cited from earlier work
[4] = Initial release rate, 40 μg carrier loading, 0.6 cm disc, 6° C.

## C[C@@H]1C/C=C/C=C/C=C/C=C/[C@H](O[C@@H]2O[C@H](C)[C@@H](O)[C@H](N)[C@@H]2O)C[C@@H]2O[C@](O)(C[C@@H](O)C[C@H]3O[C@@H]3/C=C/C(=O)O1)C[C@H](O)[C@H]2C(=O)O [Low release natamycin, natamycin]
[1]; Ice tea pH 3.2, 1 week
  Total degradation: 3.4 ppm
[1]; Ice tea pH 3.2, 2 weeks
  Total degradation: 5.4 ppm
[1]; Ice tea pH 3.2, 3 weeks
  Total degradation: 3.2 ppm
[1]; Ice tea pH 3.2, 4 weeks
  Total degradation: 15.0 ppm
[1]; Ice tea pH 3.2, 5 weeks
  Total degradation: 17.4 ppm
[1]; Ice tea, 1 week
  Difference in total degradation (DELVOCID Instant minus slow release natamycin): 11.5 ppm
[1]; Ice tea, 2 weeks
  Difference in total degradation (DELVOCID Instant minus slow release natamycin): 11.1 ppm
[1]; Ice tea, 3 weeks
  Difference in total degradation (DELVOCID Instant minus slow release natamycin): 12.1 ppm
[1]; Ice tea, 4 weeks
  Difference in total degradation (DELVOCID Instant minus slow release natamycin): 13.2 ppm
[1]; Ice tea, 5 weeks
  Difference in total degradation (DELVOCID Instant minus slow release natamycin): 14.3 ppm
[1]; Tomato juice pH 4.2, 1 week
  Total degradation: 5.1 ppm
[1]; Tomato juice pH 4.2, 2 weeks
  Total degradation: 13.1 ppm
[1]; Tomato juice pH 4.2, 3 weeks
  Total degradation: 20.1 ppm
[1]; Tomato juice pH 4.2, 4 weeks
  Total degradation: 23.2 ppm
[1]; Tomato juice pH 4.2, 5 weeks
  Total degradation: 28.9 ppm
[1]; Tomato juice, 1 week
  Difference in total degradation (DELVOCID Instant minus slow release natamycin): 3.5 ppm
[1]; Tomato juice, 2 weeks
  Difference in total degradation (DELVOCID Instant minus slow release natamycin): 0.6 ppm
[1]; Tomato juice, 3 weeks
  Difference in total degradation (DELVOCID Instant minus slow release natamycin): 6.4 ppm
[1]; Tomato juice, 4 weeks
  Difference in total degradation (DELVOCID Instant minus slow release natamycin): 4.7 ppm
[1]; Tomato juice, 5 weeks
  Difference in total degradation (DELVOCID Instant minus slow release natamycin): 3.7 ppm
[1]; tomato juice and ice tea, inferred from degradation, in words
  Release rate compared with DELVOCID Instant in beverages: lower
[2]; 5 μg carrier loading
  Release rate after 11 days: 0.35 μg/24 hours
[2]; 10 μg carrier loading
  % decrease in release rate after 9 days: 35%
  Release rate after 11 days: 0.6 μg/24 hours
[2]; 40 μg carrier loading
  % decrease in release rate after 9 days: 45%
  Release rate after 11 days: 1.2 μg/24 hours
[2]; [4]
  Release rate after 24 hours: <2 μg/24 hours
  Release rate after 48 hours: <1.8 μg/24 hours
[2]; comparison in words
  Release rate compared with DELVOCID: lower release rate

## C[C@@H]1C/C=C/C=C/C=C/C=C/[C@H](O[C@@H]2O[C@H](C)[C@@H](O)[C@H](N)[C@@H]2O)C[C@@H]2O[C@](O)(C[C@@H](O)C[C@H]3O[C@@H]3/C=C/C(=O)O1)C[C@H](O)[C@H]2C(=O)O [natamycin]
[3]
  Release rate over the first 24 hours: at least 3 μg/24 hours
